These results are taken from USRE39497E1, “Storage of materials” (Nektar Therapeutics, priority 1989, dated 2007).

A short description of data set [1]: Glass transition temperature Tg (differential scanning calorimeter). The data set is classed as physicochemical. The conditions noted are these: determined by the applicant. The text has this:
Tg values can be determined with a differential scanning calorimeter and can be detected as a point at which a plot of heat input against temperature passes through an inflection point—giving a maximum of the first temperature derivative.
In general terms: DSC measures the heat that a sample takes up or gives off during a temperature scan.

The conditions of data set [2]: L. Slade and H. Levine, Pure Appl. Chem. 60 1841 (1988); cited from earlier work.

On to `OC[C@H]1O[C@@](CO)(O[C@H]2O[C@H](CO)[C@@H](O)[C@H](O)[C@H]2O)[C@@H](O)[C@@H]1O` [sucrose], for which, in data set [1], the Tg value worked out at 55 °C.
For the compound maltotriose, the Tg in data set [2] was 76 °C.
Take `OC[C@H]1O[C@H](O[C@H]2[C@H](O)[C@@H](O)C(O)O[C@@H]2CO)[C@H](O)[C@@H](O)[C@@H]1O` (mixture of isomers) [maltose]: in data set [2], the Tg was 43 °C.
